{"source": "the supplement of paper PMC10307832", "assay_in_all_cases": "relative viability (nuclei count vs DMSO), 5 days (fraction); higher = more cells survive", "key": {"AZD1208 + Navitoclax": {"compound": "N[C@@H]1CCCN(c2c(/C=C3\\SC(=O)NC3=O)cccc2-c2ccccc2)C1 [AZD1208] + CC1(C)CCC(c2ccc(Cl)cc2)=C(CN2CCN(c3ccc(C(=O)NS(=O)(=O)c4ccc(N[C@H](CCN5CCOCC5)CSc5ccccc5)c(S(=O)(=O)C(F)(F)F)c4)cc3)CC2)C1 [Navitoclax] (partner 0.5 µM)", "in_short": "(§1)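 Relative viability divides the nuclei count in treated wells by that in vehicle wells. Lung cancer cell lines were seeded in 1536-well plates, dosed by pin tool the next day, and fixed and stained after 5 days in one step with final 0.05% Triton X-100, 1% formaldehyde and 1 ug/ml Hoechst. Dosing was a single drug or a fixed anchor-drug dose plus five library-drug doses (not always all listed) in √10 steps, and values are medians of duplicate plates imaged at 4×.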"}, "XMD14-99 + Alpelisib": {"compound": "CN1CCN(CC1)C2=CC(=C(C=C2)NC3=NC(=C(S3)C(=O)C4=C(C=CC=C4Cl)Cl)N)OC [XMD14-99] + Cc1nc(NC(=O)N2CCC[C@H]2C(N)=O)sc1-c1ccnc(C(C)(C)C(F)(F)F)c1 [Alpelisib] (partner 2 µM)", "in_short": "as §1"}, "AZD1208 + Linsitinib": {"compound": "N[C@@H]1CCCN(c2c(/C=C3\\SC(=O)NC3=O)cccc2-c2ccccc2)C1 [AZD1208] + C[C@]1(O)C[C@@H](c2nc(-c3ccc4ccc(-c5ccccc5)nc4c3)c3c(N)nccn32)C1 [Linsitinib] (partner 1 µM)", "in_short": "as §1"}, "AZD1208 + Palbociclib": {"compound": "N[C@@H]1CCCN(c2c(/C=C3\\SC(=O)NC3=O)cccc2-c2ccccc2)C1 [AZD1208] + CC(=O)c1c(C)c2cnc(Nc3ccc(N4CCNCC4)cn3)nc2n(C2CCCC2)c1=O [Palbociclib] (partner 0.5 µM)", "in_short": "as §1"}}}
{"cell line": "UMC-11", "values": [{"measurement": "relative viability", "setting": "AZD1208 + Navitoclax; first compound 0.08 µM", "value": 0.272}, {"measurement": "relative viability", "setting": "AZD1208 + Navitoclax; first compound 0.253 µM", "value": 0.301}, {"measurement": "relative viability", "setting": "AZD1208 + Navitoclax; first compound 0.8 µM", "value": 0.251}, {"measurement": "relative viability", "setting": "AZD1208 + Navitoclax; first compound 2.53 µM", "value": 0.236}, {"measurement": "relative viability", "setting": "AZD1208 + Navitoclax; first compound 8 µM", "value": 0.195}, {"measurement": "relative viability", "setting": "XMD14-99 + Alpelisib; first compound 0.08 µM", "value": 0.939}, {"measurement": "relative viability", "setting": "XMD14-99 + Alpelisib; first compound 0.8 µM", "value": 1.02}, {"measurement": "relative viability", "setting": "XMD14-99 + Alpelisib; first compound 2.53 µM", "value": 1.01}, {"measurement": "relative viability", "setting": "XMD14-99 + Alpelisib; first compound 8 µM", "value": 0.735}, {"measurement": "relative viability", "setting": "AZD1208 + Linsitinib; first compound 0.08 µM", "value": 0.909}, {"measurement": "relative viability", "setting": "AZD1208 + Linsitinib; first compound 0.253 µM", "value": 0.767}, {"measurement": "relative viability", "setting": "AZD1208 + Linsitinib; first compound 0.8 µM", "value": 0.772}, {"measurement": "relative viability", "setting": "AZD1208 + Linsitinib; first compound 2.53 µM", "value": 0.67}, {"measurement": "relative viability", "setting": "AZD1208 + Linsitinib; first compound 8 µM", "value": 0.558}, {"measurement": "relative viability", "setting": "AZD1208 + Palbociclib; first compound 0.08 µM", "value": 0.293}, {"measurement": "relative viability", "setting": "AZD1208 + Palbociclib; first compound 0.253 µM", "value": 0.281}, {"measurement": "relative viability", "setting": "AZD1208 + Palbociclib; first compound 0.8 µM", "value": 0.291}, {"measurement": "relative viability", "setting": "AZD1208 + Palbociclib; first compound 2.53 µM", "value": 0.308}, {"measurement": "relative viability", "setting": "AZD1208 + Palbociclib; first compound 8 µM", "value": 0.262}]}
